Experiments:
CCR4 [1] = biological target: T1, CCR4 (Homo sapiens, UniProt P51679); experiment: CEM cell chemotaxis (migration) assay to CCL22 (MDC) in 100% Fetal Bovine Serum (FBS); type: cell-based; details: CEM cells in 100% FBS with 1% HEPEs; recombinant human CCL22 0.1 nM; 37° C. 60 minutes
T1 construct: CEM Cells Endogenous Express CCR4; endogenous in cells; host or cells: CEM cells
T1 sequence (P51679 1-360): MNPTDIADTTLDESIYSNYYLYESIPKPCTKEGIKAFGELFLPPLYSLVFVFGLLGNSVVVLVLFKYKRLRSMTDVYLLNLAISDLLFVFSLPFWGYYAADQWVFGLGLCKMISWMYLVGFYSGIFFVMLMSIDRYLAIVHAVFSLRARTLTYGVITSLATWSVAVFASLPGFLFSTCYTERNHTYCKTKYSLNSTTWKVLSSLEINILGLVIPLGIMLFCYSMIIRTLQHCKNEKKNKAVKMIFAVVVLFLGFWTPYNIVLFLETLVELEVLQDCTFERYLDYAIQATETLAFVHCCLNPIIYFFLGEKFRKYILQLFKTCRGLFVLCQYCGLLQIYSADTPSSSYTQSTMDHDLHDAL
From the text: (§1) CEM Cells Endogenous Express CCR4
(§2) A chemotaxis assay can be used to determine the efficacy of potential receptor antagonists at blocking the migration mediated through chemokine receptors, such as CCR4. This assay is routinely performed using the ChemoTX® microchamber system with a 5 μm pore-sized polycarbonate membrane.
(§3) FBS: CEM Cells are collected by centrifugation at 400×g at room temperature, then suspended at 5 million/ml in 100% Fetal Bovine Serum (FBS) with 1% HEPEs. The compound being tested is serially diluted from a maximum final concentration of 10 μM (or an equivalent volume of its solvent (DMSO)) and is then added to the cell/buffer mixture. Separately, recombinant human CCL22 (MDC) at its EC50 concentration (0.1 nM) is placed in the lower wells of the ChemoTX® plate. The 5-μm (pore size) polycarbonate membrane was placed onto the plate, and 20 μL of the cell/compound mixture is transferred onto each well of the membrane. The plates are incubated at 37° C. for 60 minutes, after which the polycarbonate membranes are removed and 5 μl of the DNA-intercalating dye CyQUANT (Invitrogen, Carlsbad, CA) is added to the lower wells. The amount of fluorescence, corresponding to the number of migrated cells, is measured using a Spectrafluor Plus plate reader (TECAN, San Jose, CA).

CCR4 [2] = biological target: T1, CCR4; experiment: CEM cell chemotaxis (migration) assay to CCL22 (MDC) in HBSS buffer with 0.1% BSA; type: cell-based; details: CEM cells in HBSS with 0.1% BSA; recombinant human CCL22 0.1 nM; 37° C. 60 minutes
From the text: as §1, §2
as §3, with “HBSS:” for “FBS:”, “Hanks' Balanced Salt Solution (HBSS) buffer” for “100% Fetal Bovine Serum (FBS)”, “0.1% BSA.” for “1% HEPEs.”

Row | IC50 (CCR4 [1]) | IC50 (CCR4 [2]) | Compound
1 | < 100 nM | < 100 nM | C[C@@H](Nc1nc(N2CCC(CO)(NC(=O)[C@H]3CCCN3)CC2)ncc1Cl)c1ccc(Cl)cc1Cl [Example 1.003]
2 | < 100 nM | < 100 nM | C[C@@H](Nc1nc(N2CCN(C(=O)[C@H]3CCCN3)CC2)ncc1Cl)c1ccc(Cl)cc1F [Example 1.004]
3 | < 100 nM | < 100 nM | CNC1CCN(C(=O)N2CCN(c3ncc(Cl)c(N[C@H](C)c4ccc(Cl)cc4Cl)n3)CC2)C1 (some centres unmarked) [Example 1.005]
4 | < 100 nM | < 100 nM | C[C@@H](Nc1ncc(C(F)(F)F)c(N2CCN(C(=O)[C@H]3CCCN3)CC2)n1)c1ccc(Cl)cc1Cl [Example 1.006]
5 | < 100 nM | < 100 nM | C[C@@H](Nc1nc(N2CCN(C(=O)[C@H]3CCCN3)CC2)ncc1C(F)(F)F)c1ccc(Cl)cc1Cl [Example 1.007]
6 | < 100 nM | < 100 nM | C[C@@H](Nc1nc(N2CCC(N(C)C(=O)[C@H]3CCCN3)CC2)ncc1Cl)c1ccc(Cl)cc1Cl [Example 1.008]
7 | < 100 nM | < 100 nM | C[C@@H](Nc1nc(N2CCC(NC(=O)C3CCN(C)C3)CC2)ncc1Cl)c1ccc(Cl)cc1Cl (some centres unmarked) [Example 1.009]
8 | < 100 nM | < 100 nM | C[C@@H](Nc1nc(N2CCN(C(=O)CCN(C)C)CC2)ncc1Cl)c1ccc(Cl)cc1Cl [Example 1.010]
9 | < 100 nM | < 100 nM | C[C@@H](Nc1nc(N2CCN(C(=O)[C@H]3CCCN3)[C@@H](C)C2)ncc1Cl)c1ccc(Cl)cc1Cl [Example 1.011]
10 | < 100 nM | < 100 nM | C[C@@H](Nc1nc(N2CC[C@H](NC(=O)[C@H]3CCCN3)[C@@H](O)C2)ncc1Cl)c1ccc(Cl)cc1Cl [Example 1.012]
11 | < 100 nM | < 100 nM | C[C@@H](Nc1nc(N2CC[C@@H](NC(=O)[C@H]3CCCN3)[C@H](O)C2)ncc1Cl)c1ccc(Cl)cc1Cl [Example 1.013]
12 | < 100 nM | < 100 nM | C[C@@H](Nc1nc(N2CC[C@H](NC(=O)[C@H]3CCCN3)[C@H](O)C2)ncc1Cl)c1ccc(Cl)cc1Cl [Example 1.014]
13 | < 100 nM | < 100 nM | C[C@@H](Nc1nc(N2CC[C@@H](NC(=O)[C@H]3CCCN3)C2)ncc1Cl)c1ccc(Cl)cc1Cl [Example 1.015]
14 | 100 to 1000 nM |  | C[C@@H](Nc1nc(N2CC[C@H](NC(=O)[C@H]3C[C@@H](O)CN3)[C@@H](O)C2)ncc1Cl)c1ccc(Cl)cc1Cl [Example 1.216]
15 | 100 to 1000 nM |  | C[C@@H](Nc1nc(N2CCN(C(=O)c3cn(C)cn3)CC2)ncc1Cl)c1ccc(Cl)cc1Cl [Example 1.217]
16 | > 1000 nM |  | C[C@@H](Nc1nc(N2CC[C@H](NC(=O)[C@H]3CN(C)C(=O)N3)[C@@H](O)C2)ncc1Cl)c1ccc(Cl)cc1Cl [Example 1.218]
17 | 100 to 1000 nM |  | C[C@@H](Nc1nc(N2CCN(C(=O)[C@H]3CCCN3CCC(F)(F)F)CC2)ncc1Cl)c1ccc(Cl)cc1Cl [Example 1.219]
18 | < 100 nM |  | C[C@@H](Nc1nc(N2CCC([C@@H]3CCCN(CCC(=O)O)C3)CC2)ncc1Cl)c1ccc(Cl)cc1Cl [Example 1.220]
19 | < 100 nM |  | C[C@@H](Nc1nc(N2CCC([C@H]3CCCN(CCC(=O)O)C3)CC2)ncc1Cl)c1ccc(Cl)cc1Cl [Example 1.221]
20 | < 100 nM |  | C[C@@H](Nc1nc(N2CCN(C(=O)[C@H]3CNC(=O)N3)CC2)ncc1Cl)c1ccc(Cl)cc1Cl [Example 1.222]
21 | > 1000 nM |  | C[C@@H](Nc1nc(N2CCC(NC(=O)[C@H]3CN(C)C(=O)N3)CC2)ncc1Cl)c1ccc(Cl)cc1Cl [Example 1.223]
22 | < 100 nM |  | C[C@@H](Nc1nc(N2CC[C@H](NC(=O)[C@H]3CCCN3C)[C@@H](O)C2)ncc1Cl)c1ccc(Cl)cc1Cl [Example 1.224]
23 | < 100 nM |  | C[C@@H](Nc1nc(N2CCN(C(=O)[C@H]3CCC(C)(C)N3)CC2)ncc1Cl)c1ccc(Cl)cc1Cl [Example 1.225]
24 | < 100 nM |  | C[C@@H](Nc1nc(N2CCN(C(=O)[C@H]3CN(C)C(=O)N3)CC2)ncc1Cl)c1ccc(Cl)cc1Cl [Example 1.227]
25 | 100 to 1000 nM |  | C[C@@H](Nc1nc(N2CCC(C(=O)N[C@@H]3CCNC3=O)CC2)ncc1Cl)c1ccc(Cl)cc1Cl [Example 1.228]

Row | IC50 (CCR4 [1]) | IC50 (CCR4 [2]) | Compound
26 | > 1000 nM |  | C[C@@H](Nc1nc(N2CCN(C(=O)[C@@H]3CNCC(=O)N3)CC2)ncc1Cl)c1ccc(Cl)cc1Cl [Example 1.229]
27 | < 100 nM |  | C[C@@H](Nc1nc(N2CCC(O[C@H]3CCNC3)CC2)ncc1Cl)c1ccc(Cl)cc1Cl [Example 1.230]
28 | < 100 nM |  | C[C@@H](Nc1nc(N2CCN(C(=O)C3(C)CCN(C)C3)CC2)ncc1Cl)c1ccc(Cl)cc1Cl (some centres unmarked) [Example 1.231]
29 | 100 to 1000 nM |  | C[C@@H](Nc1nc(N2CCN(C(=O)[C@H]3CC(=O)N3)CC2)ncc1Cl)c1ccc(Cl)cc1Cl [Example 1.232]
30 | > 1000 nM |  | C[C@@H](Nc1nc(N2CCC(C(=O)N[C@H]3CCNC3=O)CC2)ncc1Cl)c1ccc(Cl)cc1Cl [Example 1.233]
31 | 100 to 1000 nM |  | C[C@@H](Nc1nc(N2CCN(C(=O)C[C@H]3CCC(=O)N3)CC2)ncc1Cl)c1ccc(Cl)cc1Cl [Example 1.234]
32 | > 1000 nM |  | C[C@@H](Nc1nc(N2CCC(C(=O)NC[C@H]3CCC(=O)N3)CC2)ncc1Cl)c1ccc(Cl)cc1Cl [Example 1.235]
33 | < 100 nM |  | C[C@@H](Nc1nc(N2CCN(C(=O)[C@H]3CCN(C)C3)CC2)ncc1C(N)=O)c1ccc(Cl)cc1Cl [Example 1.236]
34 | 100 to 1000 nM |  | CC(=O)N1CCC[C@@H]1C(=O)N1CCN(c2ncc(Cl)c(N[C@H](C)c3ccc(Cl)cc3Cl)n2)CC1 [Example 1.237]
35 | < 100 nM |  | C[C@@H](Nc1nc(N2CCN(C(=O)[C@H]3CCCC(=O)N3)CC2)ncc1Cl)c1ccc(Cl)cc1Cl [Example 1.238]
36 | < 100 nM |  | C[C@@H](Nc1nc(N2CCN(C(=O)[C@H]3CCC(=O)N3C)CC2)ncc1Cl)c1ccc(Cl)cc1Cl [Example 1.239]
37 | < 100 nM |  | C[C@@H](Nc1nc(N2CCN(C(=O)C3CCCC(=O)N3)CC2)ncc1Cl)c1ccc(Cl)cc1Cl (some centres unmarked) [Example 1.240]
38 | < 100 nM |  | C[C@@H](Nc1nc(N2CCC(OC3CCN(C)C3)CC2)ncc1Cl)c1ccc(Cl)cc1Cl (some centres unmarked) [Example 1.241]
39 | < 100 nM |  | CO[C@H]1CN(c2ncc(Cl)c(N[C@H](C)c3ccc(Cl)cc3Cl)n2)CC[C@@H]1NC(=O)[C@H]1CCCN1 [Example 1.242]
40 | < 100 nM |  | C[C@@H](Nc1nc(N2CCN(C(=O)[C@H]3CCN(C)C3)CC2)ncc1C#N)c1ccc(Cl)cc1Cl [Example 1.243]
41 | > 1000 nM |  | C[C@@H](Nc1nc(N2CCN(C(=O)[C@@]3(C)CCC(=O)N3)CC2)ncc1Cl)c1ccc(Cl)cc1Cl [Example 1.244]
42 | < 100 nM |  | C[C@@H](Nc1nc(N2CC[C@H](NC(=O)CCN(C)C)[C@@H](O)C2)ncc1Cl)c1ccc(Cl)cc1Cl [Example 1.245]
43 | 100 to 1000 nM |  | C[C@@H](Nc1nc(N2CC[C@H](NC(=O)[C@@]3(C)CCCN3)[C@@H](O)C2)ncc1Cl)c1ccc(Cl)cc1Cl [Example 1.246]
44 | < 100 nM |  | C[C@@H]1CC[C@H](C(=O)N2CCN(c3ncc(Cl)c(N[C@H](C)c4ccc(Cl)cc4Cl)n3)CC2)N1 [Example 1.247]
45 | < 100 nM |  | C[C@@H]1CC[C@H](C(=O)N[C@H]2CCN(c3ncc(Cl)c(N[C@H](C)c4ccc(Cl)cc4Cl)n3)C[C@@H]2O)N1 [Example 1.248]
46 |  | < 100 nM | C[C@@H](Nc1nc(N2CCN(C(=O)[C@H]3CCC(=O)N3)CC2)ncc1Cl)c1c(F)cc(Cl)cc1Cl [Example 1.250]
47 | < 100 nM |  | C[C@H](Nc1nc(N2CCN(C(=O)[C@H]3CCC(=O)N3)CC2)ncc1Cl)c1ncc(Cl)cc1Cl [Example 1.255]
48 | < 100 nM |  | Cc1nc(N2CCN(C(=O)[C@H]3CCC(=O)N3)CC2)nc(N[C@H](C)c2c(F)cc(Cl)cc2Cl)c1Cl [Example 1.260]
49 | < 100 nM |  | C[C@@H](Nc1nc(N2CCN(C(=O)[C@H]3CCC(=O)N3)CC2)nc(C(F)(F)F)c1Cl)c1ccc(Cl)cc1Cl [Example 1.261]

Source: patent US20230382894A1, “CCR4 ANTAGONISTS” (CHEMOCENTRYX, INC., priority 2022, published 2023)
